Data taken from article PMC7578299, “The antiviral effects of baloxavir marboxil against influenza A virus infection in ferrets” (Influenza and Other Respiratory Viruses, 2020).
Where “and” joins values, the source holds several entries; their conditions need not be identical. Equal entries are not always repeated.

Legend:
[1] = Metabolic stability in liver microsomes, ferret; format: in vitro ADME; settings: for % Residual in liver microsome / % Residual in liver microsome Individual value: ferret; for % Residual in liver microsome: 0.5 mg/mL, 2 μmol/L, 37°C, mean of duplicates; for % Residual in liver microsome Individual value: duplicates
Method: (§1) Liver microsomes were prepared from ferrets, rats, dogs, and monkeys, as previously described. ^28 Human liver microsomes were obtained from Sekisui‐XenoTech, LLC and pooled (n = 15). Metabolic stability of the compounds in liver microsomes was tested in duplicate. Oseltamivir and cefcapene pivoxil were used as reference compounds. Liver microsomes at 0.5 mg/mL concentration (final volume of 0.2 mL) were incubated in Tris‐HCl buffer (pH 7.4), containing 50 mmol/L Tris‐HCl, 150 mmol/L KCl, 10 mmol/L MgCl2. The hydrolysis reaction was initiated by applying the test compound solution (final concentration 2 μmol/L). After incubation for 10, 20, and 30 minutes at 37°C, the hydrolysis was terminated by the addition of twofold volume of ice‐cold acetonitrile/methanol (1:1, v/v). Samples were centrifuged at 3000 rpm for 10 minutes prior to LC‐MS/MS analysis of compounds in the supernatants.

[2] = Metabolic stability in liver microsomes, rat; format: in vitro ADME; settings: for % Residual in liver microsome: 0.5 mg/mL, 2 μmol/L, 37°C, mean of duplicates; for % Residual in liver microsome Individual value: duplicates
Method: as §1

[3] = test system: influenza virus; design: method as in PMID 30288682; settings: patients, cited from earlier work
[4] = test system: Influenza A virus A/Kadoma/3/2006 (H1N1); experiment: Experiment 2: infected ferrets, treatment starting at Day 2 p.i. (virus titer in nasal washes, body temperature); settings: treatment from Day 2 p.i.; BXM 10 mg/kg twice daily 1 day

COC(=O)OCOc1c2n(ccc1=O)N([C@@H]1c3ccccc3SCc3c1ccc(F)c3F)[C@@H]1COCCN1C2=O [BXM, Baloxavir marboxil]
stability in liver microsomes (in words) ([1]; ferret liver microsomes): stable
% Residual in liver microsome ([1]; 10 min): 98.5%
% Residual in liver microsome ([1]; 20 min): 98.1%
% Residual in liver microsome ([1]; 30 min): 90.8%
% Residual in liver microsome Individual value ([1]; 10 minutes): 97.0% and 99.9%
% Residual in liver microsome Individual value ([1]; 20 minutes): 98.3% and 97.9%
% Residual in liver microsome Individual value ([1]; 30 minutes): 87.4% and 94.2%
% Residual in liver microsome ([2]; 10 min): 25.3%
% Residual in liver microsome ([2]; 20 min): 4.6%
% Residual in liver microsome ([2]; 30 min): 0.6%
% Residual in liver microsome Individual value ([2]; 10 minutes): 25.3% and 25.2%
% Residual in liver microsome Individual value ([2]; 20 minutes): 4.9% and 4.4%
% Residual in liver microsome Individual value ([2]; 30 minutes): 0.7% and 0.5%
time within which infectious virus titers declined ([3]; single weight-based oral dose 40 or 80 mg): ≤ 1 days
time to alleviation of symptoms (in words) ([3]; vs placebo and OSP): superior compared with placebo but not significantly different from the effect of OSP treatment
body temperature changes over time (in words) [4]: a small but significant effect was observed with BXM compared with vehicle on Day 2
